System: human myeloma cell line MM.1S
Test: SILAC acetylated-lysine peptide profiling, HDAC inhibitor vs DMSO (light/heavy ratio)
Format: cell-based
Source text: An embodiment of the invention comprises utilizing the SILAC method in order to quantitate changes in protein expression between two or more populations of cells. The SILAC method is a technique based on mass spectrometry that detects differences in protein abundance among samples using non-radioactive isotopic labeling. The SILAC method is known in the art, and described in detail in Ong et al., “Stable Isotope Labeling by Amino Acids in Cell Culture, SILAC, as a Simple and Accurate Approach to Expression Proteomics”, Molecular & Cellular Proteomics, vol. 1, pp. 376-386 (2002), which is incorporated herein by reference in its entirety.
Briefly, the SILAC method involves growing two populations of cells in cell culture. The first population of cells is grown in growth media containing normal amino acids (“normal media”). The second population of cells is grown in media lacking a standard essential amino acid (such as lysine), but is then supplemented with a non-radioactive, isotopically labeled form of that essential amino acid (such as lysine labeled with ^13C atoms, rather than normal ^12C atoms), which is called “heavy media”. When the two populations of cells are each growing in the medium, they incorporate the amino acids into all of their proteins. The growth of cells maintained in the heavy media is no different from that in normal media. All peptides containing the heavy amino acids are heavier than their normal counterparts. The cells from each of the two populations of cells are lysed. The lysates from each of the two cell populations are then combined. The combined cell lysates are then analyzed by mass spectrometry. Pairs of chemically identical peptides of different stable isotope composition can be differentiated in a mass spectrometer due to their difference in mass. The ratio of peak intensities in the mass spectrum for such peptide pairs reflects the abundance ratio for the two proteins.
This example describes SILAC studies that were performed to compare the effects of three different HDAC inhibitors (Compound A, Compound B, and tubastatin A) to a control on a human multiple myeloma cell line. The HDAC inhibitors were also compared amongst themselves to determine differences in their effects.
A human myeloma cell line MM.1S was grown using either ^12C (light) or ^13C (heavy) lysine containing culture medium. The “heavy” cells were treated with DMSO as the control, and the “light” cells were treated with a single HDAC inhibitor at 37° C. for 6 hours. The heavy and light cells were lysed, and the lysates were mixed in 1:1 ratio and digested with the protease trypsin. The acetylated lysine containing peptides (due to the action of the HDAC inhibitor) in the digested peptide pool were captured by a non-specific anti-acetylated lysine antibody cocktail (the antibodies identify both light and heavy acetylated peptides), and subjected to mass spectrometry analysis in order to identify thousands of individual peptides.
Thousands of peptides were identified in pairs (^12C and ^13C) due to their known mass differences. The amino acid sequence and quantitative ratio (Light/Heavy) of a given peptide in two differentially treated cell lysates were then determined and annotated with their possible protein (gene) sources.
As stated above, three HDAC inhibitors (Compound A, Compound B, and Tubastatin A) were used. Thus, the SILAC method was performed three times, with a different HDAC inhibitor compared to a control each time. Accordingly, there are three pairs of quantitative data in the table below, i.e., Compound A:DMSO, Compound B:DMSO, and Tubastatin A:DMSO. A cut-off of 1.30 fold of change (increase or decrease) was then used to determine “changed” or “+” in the table, and any peptides with a fold of change less than 1.3 fold were determined to be “unchanged” or “0” in the table. Those peptides that were not identified were marked as “NA” in the table. […]

For CN1CCc2c(c3ccccc3n2Cc2ccc(C(=O)NO)cc2)C1 [Tub A], the “L/H ratio of acetylated peptide ASGLAAGK(ac)GVIVAK (SEQ ID NO: 37)” value (GART [156], log 2 scale, drug vs DMSO) was 0.46, the “light to heavy ratio (L/H ratio) of acetylated peptide, log 2 scale” value (GDASK(ac)EDIDTAMK (SEQ ID NO: 161), Isoform 1 of Hydroxyacyl-coenzyme A dehydrogenase mitochondrial [241], HADH) was 0.47 and the “light to heavy ratio (L/H ratio) of acetylated peptide, log 2 scale” value (GDGTGGK(ac)SIYGER (SEQ ID NO: 196), Peptidyl-prolyl cis-trans isomerase B [116], PPIB) was −0.54. The “light to heavy ratio (L/H ratio) of acetylated peptide, log 2 scale” value (GFAFVTFDDHDSVDK(ac)IVIQK (SEQ ID NO: 165), Isoform A1-B of Heterogeneous nuclear ribonucleoprotein A1 [161], HNRNPA1) was −0.53, the “light to heavy ratio (L/H ratio) of acetylated peptide, log 2 scale” value (GFGGK(ac)YGVER (SEQ ID NO: 162), Hematopoietic lineage cell-specific protein [123], HCLS1) was 0.77 and the “light to heavy ratio (L/H ratio) of acetylated peptide, log 2 scale” value (GHLENNPALEK(ac)LLPHIR (SEQ ID NO: 208), 60S acidic ribosomal protein P0 [77], RPLP0) was −0.48. The “light to heavy ratio (L/H ratio) of acetylated peptide, log 2 scale” value (GIVK(ac)DIIHDPGR (SEQ ID NO: 207), 60S ribosomal protein L8 [46], RPL8) was −0.54, the “light to heavy ratio (L/H ratio) of acetylated peptide, log 2 scale” value (GLFIIDDK(ac)GILR (SEQ ID NO: 197), Peroxiredoxin-1 [136], PRDX1) was −0.77 and the “light to heavy ratio (L/H ratio) of acetylated peptide, log 2 scale” value (GLSSLLYGSIPK(ac)AAVR (SEQ ID NO: 220), Tricarboxylate transport protein mitochondrial [97], SLC25A1) was 0.44. For the same compound, the “L/H ratio of acetylated peptide LVK(ac)VWNLANCK (SEQ ID NO: 39)” value (GNB2L1 [175], log 2 scale, drug vs DMSO) was −0.70, the “L/H ratio of acetylated peptide IIVDELK(ac)QEVISTSSK (SEQ ID NO: 38)” value (GNB2L1 [271], log 2 scale, drug vs DMSO) was −0.62 and the “light to heavy ratio (L/H ratio) of acetylated peptide, log 2 scale” value (GPIGSIGPK(ac)GIPGEDGYR (SEQ ID NO: 146), Isoform 1 of Collagen alpha-3(VI) chain [2052], COL6A3) was −0.80. The “L/H ratio of acetylated peptide” value (GSK(ac)K(ac)AVTK (SEQ ID NO: 490), Histone H2B type 2-E [16:17], HIST2H2BE) was 0.00 log 2, the “L/H ratio of acetylated peptide (ac)AHYNFK(ac)K (SEQ ID NO: 40)” value (GTPBP4 [7], log 2 scale, drug vs DMSO) was −0.38 and the “light to heavy ratio (L/H ratio) of acetylated peptide, log 2 scale” value (GTVRPANDFNPDADAK(ac)ALR (SEQ ID NO: 130), Annexin A6 [370], ANXA6) was 0.44. The “L/H ratio of acetylated peptide” value (GYGFGLIK(ac)LDLK (SEQ ID NO: 465), Voltage-dependent anion-selective channel protein 1 [28], VDAC1) was 0.00 log 2, the “light to heavy ratio (L/H ratio) of acetylated peptide, log 2 scale” value (GYLTK(ac)EDLR (SEQ ID NO: 216), Protein S100-A10 [28], S100A10) was 1.00 and the “light to heavy ratio (L/H ratio) of acetylated peptide (ac)ACGLVASNLNLK(ac)PGECLR (SEQ ID NO: 575)” value (Galectin-1 [13], gene LGALS1, inhibitor:DMSO) was 0.00 log 2. The “light to heavy ratio (L/H ratio) of acetylated peptide ISGASEK(ac)DIVHSGLAYTMER (SEQ ID NO: 543)” value (Glutamate dehydrogenase 1 mitochondrial [503], gene GLUD1, inhibitor:DMSO) was 0.00 log 2, the “light to heavy ratio (L/H ratio) of acetylated peptide VVK(ac)QASEGPLK (SEQ ID NO: 597)” value (Glyceraldehyde-3-phosphate dehydrogenase [263], gene GAPDH, inhibitor:DMSO) was 0.00 log 2 and the “light to heavy ratio (L/H ratio), log 2 scale, acetylated peptide LLLLGAGESGK(ac)STIVK (SEQ ID NO: 769)” value (Guanine nucleotide-binding protein G(olf) subunit alpha [55], gene GNAL, drug:DMSO) was 0.00. For the same compound, the “L/H ratio of acetylated peptide AGGK(ac)AGK(ac)DSGK (SEQ ID NO: 15)” value (H2AFV [5:8], log 2 scale, drug vs DMSO) was 0.47, the “L/H ratio of acetylated peptide GQQQVFK(ac)GLNDK (SEQ ID NO: 41)” value (HADHA [406], log 2 scale, drug vs DMSO) was 0.46 and the “L/H ratio of acetylated peptide EPVAVLK(ac)ANR (SEQ ID NO: 9)” value (HEXB [161], log 2 scale, drug vs DMSO) was −0.58. The “light to heavy ratio (L/H ratio) of acetylated peptide, log 2 scale” value (HIK(ac)ENDYYTPTGEFR (SEQ ID NO: 227), Dolichyl-diphosphooligosaccharide--protein glycosyltransferase subunit STT3A [613], STT3A) was −0.44, the “L/H ratio of acetylated peptide PDPAK(ac)SAPAPK(ac)K (SEQ ID NO: 16)” value (HIST1H2BO [6:12], log 2 scale, drug vs DMSO) was 0.47 and the “light to heavy ratio (L/H ratio) of acetylated peptide, log 2 scale” value (HK(ac)DIDILIVR (SEQ ID NO: 178), Isocitrate dehydrogenase [NAD] subunit gamma mitochondrial [159], IDH3G) was −1.00. For the same compound, the “light to heavy ratio (L/H ratio) of acetylated peptide SLNLK(ac)HIK (SEQ ID NO: 607)” value (HLA-B associated transcript 1 [188], gene SNORD84, DDX39B, inhibitor:DMSO) was 0.00 log 2, the “L/H ratio of acetylated peptide K(ac)HPDSSVNFAEFSK (SEQ ID NO: 42)” value (HMGB2 [30], log 2 scale, drug vs DMSO) was −0.48 and the “L/H ratio of acetylated peptide RGEEGHDPK(ac)EPEQLR (SEQ ID NO: 43)” value (HNRNPA3 [29], log 2 scale, drug vs DMSO) was −0.45. For the same compound, the “L/H ratio of acetylated peptide AFITNIPFDVK(ac)WQSLK (SEQ ID NO: 44)” value (HNRNPM [83], log 2 scale, drug vs DMSO) was −0.48, the “L/H ratio of acetylated peptide AAEVLNK(ac)HSLSGRPLK (SEQ ID NO: 3)” value (HNRNPM [134], log 2 scale, drug vs DMSO) was −0.87 and the “L/H ratio of acetylated peptide VK(ac)VLFVR (SEQ ID NO: 45)” value (HNRNPR [341], log 2 scale, drug vs DMSO) was −0.77. The “L/H ratio of acetylated peptide GYFEYIEENK(ac)YSR (SEQ ID NO: 46)” value (HNRNPU [246], log 2 scale, drug vs DMSO) was −0.60, the “L/H ratio of acetylated peptide TTWVTK(ac)HAAENPGK (SEQ ID NO: 47)” value (HNRNPU [497], log 2 scale, drug vs DMSO) was −0.56 and the “L/H ratio of acetylated peptide NK(ac)EIFLR (SEQ ID NO: 52)” value (HSP90B1 [97], log 2 scale, drug vs DMSO) was −1.00. For the same compound, the “L/H ratio of acetylated peptide […](ac)IR (SEQ ID NO: 49)” value (HSP90B1 [114], log 2 scale, drug vs DMSO) was −0.53, the “L/H ratio of acetylated peptide EELVK(ac)NLGTIAK (SEQ ID NO: 48)” value (HSP90B1 [161], log 2 scale, drug vs DMSO) was −0.60 and the “L/H ratio of acetylated peptide ETLQQHK(ac)LLK (SEQ ID NO: 50)” value (HSP90B1 [455], log 2 scale, drug vs DMSO) was −0.74. For the same compound, the “L/H ratio of acetylated peptide IADDK(ac)YNDTFWK (SEQ ID NO: 51)” value (HSP90B1 [479], log 2 scale, drug vs DMSO) was −0.78, the “L/H ratio of acetylated peptide NQLTSNPENTVFDAK(ac)R (SEQ ID NO: 54)” value (HSPA5 [96], log 2 scale, drug vs DMSO) was −0.74 and the “L/H ratio of acetylated peptide […](ac)R (SEQ ID NO: 53)” value (HSPA5 [213], log 2 scale, drug vs DMSO) was −0.54. The “L/H ratio of acetylated peptide […](ac)R (SEQ ID NO: 55)” value (HSPA8 [71], log 2 scale, drug vs DMSO) was −0.48 and the “light to heavy ratio (L/H ratio) of acetylated peptide NQVALNPQNTVFDAK(ac)R (SEQ ID NO: 267)” value (Heat shock 70 kDa protein 1A/1B [71], HSPA1B, HSPA1A, drug:DMSO) was 0.59 log 2.

From patent US20140357512A1, “HISTONE DEACETYLASE (HDAC) BIOMARKERS IN MULTIPLE MYELOMA” (priority 2013, published 2014)
